Source: publication PMC7252524 (Journal of medicinal chemistry, 2019)

Test: Mouse PK analysis, large intestine
Assay type: in vivo

| Structure (SMILES) | Large Intestinal PK AUClast (ip, 10 mg/kg) | Large Intestinal PK AUClast (iv, 10 mg/kg) | Large Intestinal PK AUClast (iv, 5 mg/kg) | Large Intestinal PK AUClast (po, 20 mg/kg) |
| --- | --- | --- | --- | --- |
| C#CCC1CCN(C2CCN(S(=O)(=O)c3ccc(Br)cc3)CC2)CC1 [compound 92, 1’-((4-Bromophenyl)sulfonyl)-4-(prop-2-yn-1-yl)-1,4’-bipiperidine] | 633,289 ng·min/g | 559,037 ng·min/g | – | – |
| COc1ccc(S(=O)(=O)N2CCC(N3CCC(C)CC3)CC2)cc1 [compound 6, 1’-((4-Methoxyphenyl)sulfonyl)-4-methyl-1,4’-bipiperidine] | 737,709 ng·min/g | – | – | – |
| CC1CCN(C2CCN(S(=O)(=O)c3ccc(Cl)cc3)CC2)CC1 [compound 16, 1’-((4-Chlorophenyl)sulfonyl)-4-methyl-1,4’-bipiperidine] | – | 262,874 ng·min/g | – | – |
| CC1CCN(C2CCN(S(=O)(=O)c3ccc(OC(F)F)cc3)CC2)CC1 [compound 22, 1’-((4-(Difluoromethoxy)phenyl)sulfonyl)-4-methyl-1,4’-bipiperidine] | 790,425 ng·min/g | – | 511,878 ng·min/g | 890,969 ng·min/g |
